Test results from US20210221784A1, “COMPOUNDS AND COMPOSITIONS FOR THE TREATMENT OF PAIN” (Université de Strasbourg, priority 2018, published 2021).

Columns and labels:
hNPFFR1 = target: T1, hNPFFR1 (Homo sapiens, UniProt Q9GZQ6); experiment: Radioligand binding competition, membranes from CHO cells expressing hNPFFR1; details: 0.015 nM [D-Tyr1[125I], N-MePhe3]-NPFF, 1 hr at 25° C.; for Ki: read-out: NPFF1-R Ki
T1 construct: expressed in transfected cells; membranes
Experimental: (§1) Competition experiments with membranes from CHO cells stably expressing hNPFFR1 and hNPFFR2 were performed essentially as described in Elhabazi, K., et al. Neuropharmacology, 2013. 75C, 164-171., Briefly, hNPFFR1 or hNPFFR2 membranes (5 to 10 μg of proteins) were incubated (1 hr at 25° C.; 0.25 mL total volume) with 0.015 nM [D-Tyr1[125I], N-MePhe3]-NPFF (Hartmann Analytic GmbH) in 50 mM HEPES (pH 7.4), 1 mM CaCl2, 1 mM MgCl2 and 0.1% bovine serum albumin. Non-specific binding was determined in the presence of 10 μM RFRP-3. Incubation was terminated by rapid filtration through a 96-well GF/B unifilter apparatus (Perkin Elmer Life and Analytical Sciences, Courtaboeuf, France). Unifilters were washed five times with binding buffer, then dried for 1 h at 65° C. After addition of 40 μL scintillation cocktail (Microscint-O, Perkin Elmer) per well, bound radioactivity was determined on a TopCount scintillation counter (Perkin Elmer).

hNPFFR2 = target: T2, hNPFFR2 (Homo sapiens, UniProt Q9Y5X5); experiment: Radioligand binding competition, membranes from CHO cells expressing hNPFFR2; details: 0.015 nM [D-Tyr1[125I], N-MePhe3]-NPFF, 1 hr at 25° C.; for Ki: read-out: NPFF2-R Ki
T2 construct: expressed in transfected cells; membranes
Experimental: as §1

[1] = target: T3, human NPFFR1 (hNPFFR1) receptor (Homo sapiens, UniProt Q9GZQ6); experiment: Human NPFFR1 evaluation using BRET biosensors in HEK-293 T cells; assay type: cell-based; details: hNPFFR1 in HEK-293 T cells, stimulated by EC80 RFRP-3, read-out: IC50 of antagonist activity
T3 construct: expressed in transfected cells; host or cells: HEK-293 T cells, transient co-transfection
Experimental: Compounds of the present invention were tested successively for their agonist and antagonist activities on human NPFFR1 (hNPFFR1) receptor transiently over-expressed in HEK-293 T cells. Compounds exert agonist activity if, by themselves in absence of neuropeptide RFRP-3 (also named NPVF) they activate hNPFFR1; and they exert antagonist activity if they decrease the action of RFRP-3 on the receptor. The assay used to measure compound activity is based on BRET (Bioluminescence Resonance Energy Transfer) biosensors and is designed to monitor the plasma membrane translocation of protein that interacts with specific Ga subunit. The specific effector (luciferase tagged: BRET donor) recruited at the membrane will be in close proximity to a plasma membrane anchor (GFP tagged: BRET acceptor) to induce a BRET signal (Ramdan et al, 2006, Chapter 5, Current Protocols in Neuroscience).
HEK-293 T cells are maintained in Dulbecco's Modified Eagle's Medium supplemented with 10% Foetal Calf Serum, 1% Penicillin/Streptomycin at 37° C./5% CO2. Cells are co-transfected using polyethylenimine (25 kDa linear) with four DNA plasmids encoding; hNPFFR1, GαoB, a Gi family specific intracellular effector fused to luciferase (BRET donor), a plasma membrane effector fused to GFP (BRET acceptor). After transfection, cells are cultured for 48 h at 37° C./5% CO2.
Receptor activity is detected by changes in BRET signal.
On the day of the assay, cells are detached using trypsin 0.05%, resuspended in assay buffer (1.8 mM CaCl2, 1 mM MgCl2, 2.7 mM KCl, 137 mM NaCl, 0.4 mM NaH2PO4, 5.5 mM D-Glucose, 11.9 mM NaHCO3, 25 mM Hepes) and seeded in 384 well plate at a density of 20,000 cells per well. Then, plates are equilibrated 3.5 hours at 37° C. before adding compounds.
Compounds and luciferase substrate are added to the cells using an automated device (Freedom Evo®, Tecan) and BRET readings are collected on EnVision (PerkinElmer) with specific filters (410 nm BW 80 nm, 515 nm BW 30 nm).
Agonist and antagonist activities of compounds are consecutively evaluated on the same cell plate. Agonist activity is first measured after 10 minutes incubation with compound alone on the cells. Then, cells are stimulated by an EC80 RFRP-3 concentration and luminescence is recorded for additional 10 minutes. EC80 RFRP-3 concentration is the concentration giving 80% of the maximal RFRP-3 response. Agonist or antagonist activities are evaluated in comparison to basal signals evoked by assay buffer or EC80 RFRP-3 alone, respectively.
For IC50 determination, a dose-response test is performed using 20 concentrations (ranging over 6 logs) of each compound. Dose-response curves are fitted using the sigmoidal dose-response (variable slope) analysis in GraphPad Prism software (GraphPad Software) and IC50 of antagonist activity is calculated. Dose-response experiments are performed in duplicate, in two independent experiments.

T2 sequence (Q9Y5X5 whole entry): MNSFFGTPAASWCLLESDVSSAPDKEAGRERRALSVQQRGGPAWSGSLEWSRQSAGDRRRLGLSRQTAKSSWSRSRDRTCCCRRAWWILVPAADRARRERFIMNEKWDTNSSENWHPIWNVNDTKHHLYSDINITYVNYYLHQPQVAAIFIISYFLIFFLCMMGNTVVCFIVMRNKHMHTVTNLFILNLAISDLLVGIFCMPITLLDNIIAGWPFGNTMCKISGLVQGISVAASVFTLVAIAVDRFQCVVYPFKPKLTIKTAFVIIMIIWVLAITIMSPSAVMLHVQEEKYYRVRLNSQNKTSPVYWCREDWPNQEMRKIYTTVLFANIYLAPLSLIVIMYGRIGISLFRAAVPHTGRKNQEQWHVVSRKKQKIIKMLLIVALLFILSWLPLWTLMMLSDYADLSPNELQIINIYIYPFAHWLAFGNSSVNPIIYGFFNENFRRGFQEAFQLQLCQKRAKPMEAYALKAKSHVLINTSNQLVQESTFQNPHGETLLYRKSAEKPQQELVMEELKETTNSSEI
T3 sequence (Q9GZQ6 whole entry): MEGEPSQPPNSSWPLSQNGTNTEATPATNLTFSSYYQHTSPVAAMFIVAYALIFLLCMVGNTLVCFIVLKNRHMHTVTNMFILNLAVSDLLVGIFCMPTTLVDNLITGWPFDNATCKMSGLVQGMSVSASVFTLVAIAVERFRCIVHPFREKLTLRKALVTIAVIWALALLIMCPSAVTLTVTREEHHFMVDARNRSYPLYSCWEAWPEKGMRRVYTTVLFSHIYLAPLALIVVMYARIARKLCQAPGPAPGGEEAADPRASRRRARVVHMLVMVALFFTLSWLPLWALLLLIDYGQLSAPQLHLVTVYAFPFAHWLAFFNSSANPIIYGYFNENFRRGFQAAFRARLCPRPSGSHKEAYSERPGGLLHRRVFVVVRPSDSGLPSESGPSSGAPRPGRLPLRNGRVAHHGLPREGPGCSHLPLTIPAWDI
T1 sequence (Q9GZQ6 whole entry): as above

| Molecule | Ki (hNPFFR1) | Ki (hNPFFR2) | IC50 [1] | melting point | other results |
| --- | --- | --- | --- | --- | --- |
| 3-(2-(piperidin-1-yl)ethoxy)pyridine-2,6-diamine [Compound 2j] | 33 nM | 450 nM | – | – | – |
| COc1cc(N)nc(N)c1-c1cccc(Cl)c1Cl [Compound 8a, 3-(2,3-dichlorophenyl)-4-methoxypyridine-2,6-diamine] | 4080 nM | > 50000 nM | – | – | – |
| 5-(2-methoxyphenyl)-6-(trifluoromethoxy)pyridin-2-amine [Compound 6f] | > 5000 nM | > 10000 nM | – | – | – |
| Nc1ccc(-c2cccc(Cl)c2Cl)c(N2CCCCC2)n1 [Compound 5i, 5-(2,3-dichlorophenyl)-6-(piperidin-1-yl)pyridin-2-amine] | 440 nM | 6300 nM | – | – | – |
| CCCCNc1nc(N)ccc1-c1cccc(Cl)c1Cl [Compound 5c, N2-butyl-3-(2,3-dichlorophenyl)pyridine-2,6-diamine] | 416 nM | 6900 nM | – | – | – |
| Nc1ccc(CCc2ccccc2)c(N)n1 [Compound 11a, 3-phenethylpyridine-2,6-diamine] | 189 nM | 5400 nM | – | – | – |
| 4′-methyl-[3,4′-bipyridine]-2,6-diamine [Compound 3f] | 515 nM | – | – | – | NPFF2-R Ki (nM) (hNPFFR2): ns |
| Nc1ccc(-c2cccc(Cl)c2Cl)c(NCCN2CCCCC2)n1 [Compound 5h, 3-(2,3-dichlorophenyl)-N2-(2-(piperidin-1-yl)ethyl)pyridine-2,6-diamine] | 1920 nM | 3200 nM | – | – | – |
| Nc1ccc(-c2ccoc2)c(N)n1 [Compound 3b, 3-(furan-3-yl)pyridine-2,6-diamine] | – | – | – | – | NPFF1-R Ki (nM) (hNPFFR1): n.s.; NPFF2-R Ki (nM) (hNPFFR2): n.s. |
| Nc1nc(N)c(-c2cccc(Cl)c2Cl)cc1F [Compound 9a, 3-(2,3-dichlorophenyl)-5-fluoropyridine-2,6-diamine] | 3240 nM | 1800 nM | – | – | – |
| Nc1ccc(-c2cc3ccccc3o2)c(N)n1 [Compound 3c, 3-(benzofuran-2-yl) pyridine-2,6-diamine] | 524 nM | 34000 nM | – | – | – |
| COc1nc(N)ccc1-c1cccc(Cl)c1Cl [Compound 7a, 5-(2,3-dichlorophenyl)-6-methoxypyridin-2-amine] | – | – | – | – | NPFF1-R Ki (nM) (hNPFFR1): ns; NPFF2-R Ki (nM) (hNPFFR2): ns |
| CCc1cc(-c2cccc(Cl)c2Cl)c(N)nc1N [Compound 9b, 3-(2,3-dichlorophenyl)-5-ethylpyridine-2,6-diamine] | 1090 nM | 3300 nM | – | – | – |
| Nc1ccc(-c2c(Cl)cccc2Cl)c(N)n1 [Compound 1m, 3-(2,6-dichlorophenyl) pyridine-2,6-diamine] | 94 nM | > 10000 nM | – | – | – |
| Nc1ccc(-c2ccco2)c(N)n1 [Compound 3a, 3-(furan-2-yl)pyridine-2,6-diamine] | 5080 nM | 106000 nM | – | – | – |
| COCCNc1nc(N)ccc1-c1cccc(Cl)c1Cl [Compound 5g, 3-(2,3-dichlorophenyl)-N2-(2-methoxyethyl)pyridine-2,6-diamine] | 481 nM | – | – | – | NPFF2-R Ki (nM) (hNPFFR2): ns |
| COc1ccc2ccccc2c1-c1ccc(N)nc1N [Compound 69, 3-(2-methoxy-1-naphthyl)pyridine-2,6-diamine] | – | – | 100 to 500 nM | 63 to 67 °C | – |
| CCc1nc(N)ccc1-c1cccc2ccccc12.Cl [Compound 67, 6-ethyl-5-(1-naphthyl)pyridin-2-amine] | – | – | 100 to 500 nM | 90 to 120 °C | – |

| Molecule | Ki (hNPFFR1) | Ki (hNPFFR2) | IC50 [1] | melting point | other results |
| --- | --- | --- | --- | --- | --- |
| CCc1nc(N)ccc1-c1ccccc1OC1CC1.Cl [Compound 31, 5-[2-(cyclopropoxy)phenyl]-6-ethyl-pyridin-2-amine] | – | – | < 100 nM | 60 to 80 °C | – |
| Cl.Nc1ccc(-c2ccccc2OCC2CC2)c(N)n1 [Compound 65, 3-[2-(cyclopropylmethoxy)phenyl]pyridine-2,6-diamine] | – | – | < 100 nM | 63 to 68 °C | – |
| Nc1ccc(-c2ccc(F)cc2Cl)c(N)n1 [Compound 45, 3-(2-Chloro-4-fluoro-phenyl)-pyridine-2,6-diamine] | – | – | 500 to 1000 nM | 150 to 155 °C | – |
| Cl.Nc1ccc(-c2ccc(Cl)c3ccccc23)c(N)n1 [Compound 73, 3-(4-chloro-1-naphthyl)pyridine-2,6-diamine] | – | – | < 100 nM | 135 to 140 °C | – |
| 3-(2-methoxyethoxyphenyl)pyridine-2,6-diamine [Compound 2h] | 26 nM | 35700 nM | – | – | – |
| CS(=O)(=O)c1ccccc1-c1ccc(N)nc1N.Cl [Compound 63, 3-(2-methylsulfonylphenyl)pyridine-2,6-diamine] | – | – | > 1000 nM | 55 to 65 °C | – |
| Nc1ccc(-c2cccc3ccccc23)c(N)n1 [Compound 68, 3-(1-naphthyl)pyridine-2,6-diamine] | – | – | < 100 nM | 152 to 158 °C | – |
| CC(C)Oc1ccc(C(F)(F)F)cc1-c1ccc(N)nc1N [Compound 52, 3-(2-Isopropoxy-5-trifluoromethyl-phenyl)-pyridine-2,6-diamine] | – | – | > 1000 nM | 100 to 103 °C | – |
| Cc1c(Cl)cccc1-c1ccc(N)nc1N [Compound 1q, 3-(3-chloro-2-methylphenyl) pyridine-2,6-diamine] | 112 nM | 7300 nM | – | – | – |
| COc1ccccc1-c1c(C)cc(N)nc1C [Compound 27, 5-(2-Methoxy-phenyl)-4,6-dimethyl-pyridin-2-ylamine] | – | – | > 1000 nM | 178 to 181 °C | – |
| CCc1nc(N)ccc1-c1ccccc1OC1CCCC1.Cl [Compound 76, 5-[2-(cyclopentoxy)phenyl]-6-ethyl-pyridin-2-amine] | – | – | < 100 nM | 80 to 93 °C | – |
| COc1ncccc1-c1ccc(N)nc1N [Compound 89, 3-(2-methoxy-3-pyridyl)pyridine-2,6-diamine] | – | – | > 1000 nM | 174 to 176 °C | – |
| Nc1ccc(-c2cccc(Cl)c2Cl)c(NCCc2ccccc2)n1 [Compound 5f, 3-(2,3-dichlorophenyl)-N2-phenethylpyridine-2,6-diamine] | 424 nM | 800 nM | – | – | – |
| Nc1ccc(-c2ccc(F)nc2)c(N)n1 [Compound 86, 3-(6-fluoro-3-pyridyl)pyridine-2,6-diamine] | – | – | > 1000 nM | 170 to 178 °C | – |
| Cc1nc(F)ccc1-c1ccc(N)nc1N [Compound 85, 3-(6-fluoro-2-methyl-3-pyridyl)pyridine-2,6-diamine] | – | – | > 1000 nM | 186 to 192 °C | – |
| COc1ccc(-c2ccc(N)nc2N)c(C)c1 [Compound 40, 3-(4-Methoxy-2-methyl-phenyl)-pyridine-2,6-diamine] | – | – | > 1000 nM | 150 to 158 °C | – |
| CC(C)Oc1ccc2ccccc2c1-c1ccc(N)nc1N [Compound 70, 3-(2-isopropoxy-1-naphthyl)pyridine-2,6-diamine] | – | – | 500 to 1000 nM | 40 to 43 °C | – |
